Experimental data taken from patent US20230192715A1 (priority 2020, published 2023).

Legend:
[1] = tested on: serotonin receptors; settings: Rickli et al, 2018; cited from earlier work
[2] = Double-blind placebo controlled randomized clinical trial in major depressive disorder; type: in vivo, human
[3] = tested on: PD95, GluR1; settings: in vivo; cited from earlier work
[4] = tested on: BDNF; settings: humans; plasma, healthy volunteers, 14-day Phase 1 study; cited from earlier work
[5] = tested on: mRNA for NMDAR1; settings: in vitro; cited from earlier work

Compound | actions at serotonin receptors [1] | persistence of remission ([2]; after discontinuation of treatment) | patients with remission of disease (MADRS<10) ([2]; within the first week of treatment, 5% in patients randomized to placebo) | levels of PD95, GluR1 [3] | BDNF [4] | mRNA for NMDAR1 [5]
CN1CC[C@@]23c4c5ccc(O)c4O[C@@H]2[C@H](O)C=C[C@@H]3[C@@H]1C5 [Levomorphine] | no actions at serotonin receptors | – | – | – | – | –
CCC(=O)C(C[C@H](C)N(C)C)(c1ccccc1)c1ccccc1 [Dextromethadone] | – | persisted for at least seven days after discontinuation of treatment | over 30% | increases levels of PD95, GluR1 | increases BDNF | increases mRNA for NMDAR1
